Each compound was assayed on Glo-Response ARE-luc2P HEK293 cell line (assay: ARE luciferase reporter cell-based assay). Conditions: Homo sapiens, HEK293, 24 h, average of results obtained.
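Also: luciferase signal tracks Nrf2 activation of the ARE once compounds disrupt KEAP1-Nrf2 binding, read with One-Glo reagent, DMSO serving as low control.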

For `Cc1cnc2c(c1)S(=O)(=O)N(Cc1cc(C(CC(=O)O)c3ccn4c(C(F)F)nnc4c3C)ccc1C)C[C@H]1CCCCN21` (stereo in doubt) [Example 502, 3-(3-(Difluoromethyl)-8-methyl-[1,2,4]triazolo[4,3-a]pyridin-7-yl)-3-(4-methyl-3-(((*R)-3-methyl-5,5-dioxido-7,7a,8,9,10,11-hexahydro-6H-dipyrido[2,1-d:2′,3′-f][1,2,5]thiadiazepin-6-yl)methyl)phenyl)propanoic Acid], which EC50 is on record?
The EC50 was 3.92 nM.

`Cc1ccc([C@H](CC(=O)O)c2ccc3c(nnn3CC3CC3)c2C)cc1CN1CC2(CC2)N(C)c2ncccc2S1(=O)=O` (single isomer, unassigned) [Example 78, (*S)-3-(1-(Cyclopropylmethyl)-4-methyl-1H-benzo[d][1,2,3]triazol-5-yl)-3-(4-methyl-3-((5′-methyl-1′,1′-dioxido-5′H-spiro[cyclopropane-1,4′-pyrido[2,3-f][1,2,5]thiadiazepin]-2′(3′H)-yl)methyl)phenyl)propanoic Acid] was tested. Which EC50 did it give?
The EC50 was 8.9 nM.

For `Cc1cnc2c(c1)S(=O)(=O)N(Cc1cc([C@@H](c3ccc4c(nnn4C4CC4)c3C)C(C)(C)C(=O)O)ccc1C)CC1(CNC1)O2` (single isomer, unassigned) [Example 646, (*S)-3-(1-Cyclopropyl-4-methyl-1H-benzo[d][1,2,3]triazol-5-yl)-2,2-dimethyl-3-(4-methyl-3-((8′-methyl-1′,1′-dioxidospiro[azetidine-3,4′-pyrido[2,3-b][1,4,5]oxathiazepin]-2′(3′H)-yl)methyl)phenyl)propanoic Acid], which EC50 is on record?
Its EC50 is 66.7 nM.

For `Cc1ccc(C(c2ccn3c(C(F)(F)F)nnc3c2)C(C)(C)C(=O)O)cc1CN1CC2(CCOCC2)Oc2ncccc2S1(=O)=O` (centres unmarked) [Example 319, 3-(3-((1′,1′-Dioxido-2,3,5,6-tetrahydrospiro[pyran-4,4′-pyrido[2,3-b][1,4,5]oxathiazepin]-2′(3′H)-yl)methyl)-4-methylphenyl)-2,2-dimethyl-3-(3-(trifluoromethyl)-[1,2,4]triazolo[4,3-a]pyridin-7-yl)propanoic Acid], which EC50 is on record?
The EC50 was 44.5 nM.

How did the EC50 turn out when `CCn1nnc2c(C)c(C(CC(=O)O)c3ccc(C)c(CN4C[C@H]5COCCN5c5ncccc5S4(=O)=O)c3)ccc21` (mixture of isomers) [Example 135, (R/S)-3-(3-(((*S)-5,5-Dioxido-7a,8,10,11-tetrahydro-[1,4]oxazino[3,4-d]pyrido[2,3-f][1,2,5]thiadiazepin-6(7H)-yl)methyl)-4-methylphenyl)-3-(1-ethyl-4-methyl-1H-benzo[d][1,2,3]triazol-5-yl)propanoic Acid] was run?
The EC50 was 24 nM.

How did the EC50 turn out when `CCn1nnc2c(C)c([C@H](c3ccc(C)c(CN4CC5(CCOCC5)Oc5ncccc5S4(=O)=O)c3)C(C)(C)C(=O)O)ccc21` (single isomer, unassigned) [Example 15, (*S)-3-(3-((1′,1′-Dioxido-2,3,5,6-tetrahydrospiro[pyran-4,4′-pyrido[2,3-b][1,4,5]oxathiazepin]-2′(3′H)-yl)methyl)-4-methylphenyl)-3-(1-ethyl-4-methyl-1H-benzo[d][1,2,3]triazol-5-yl)-2,2-dimethylpropanoic Acid] was run?
Its EC50 is 0.3 nM.

`Cc1ccc([C@H](CC(=O)O)c2ccn3c(C(F)(F)F)nnc3c2C)cc1CN1C[C@]2(C)CCCN2c2ncccc2S1(=O)=O` (relative stereo) [Example 186, (*S)-3-(4-Methyl-3-(((*S)-7a-methyl-5,5-dioxido-7a,8,9,10-tetrahydropyrido[2,3-f]pyrrolo[2,1-d][1,2,5]thiadiazepin-6(7H)-yl)methyl)phenyl)-3-(8-methyl-3-(trifluoromethyl)-[1,2,4]triazolo[4,3-a]pyridin-7-yl)propanoic Acid] was tested. Which EC50 did it give?
The EC50 was 47 nM.

Which EC50 does the source give for `CCCCNc1ccc2c(n1)OC1(CC1)CN(Cc1cc([C@H](CC(=O)O)c3ccn4c(C(F)(F)F)nnc4c3C)ccc1C)S2(=O)=O` (single isomer, unassigned) [Example 113, (*S)-3-(3-((7′-(Butylamino)-1′,1′-dioxidospiro[cyclopropane-1,4′-pyrido[2,3-b][1,4,5]oxathiazepin]-2′(3′H)-yl)methyl)-4-methylphenyl)-3-(8-methyl-3-(trifluoromethyl)-[1,2,4[triazolo[4,3-a]pyridine-7-yl)propanoic Acid] here?
The EC50 was 490 nM.

With `Cc1cnc2c(c1)S(=O)(=O)N(Cc1nc([C@@H](CC(=O)O)c3ccn4c(C(F)(F)F)nnc4c3C)ccc1C)C[C@@H]1CCCCN21` (relative stereo) [Example 488, (*S)-3-(8-Methyl-3-(trifluoromethyl)-[1,2,4]triazolo[4,3-a]pyridin-7-yl)-3-(5-methyl-6-(((*S)-3-methyl-5,5-dioxido-7,7a,8,9,10,11-hexahydro-6H-dipyrido[2,1-d:2′,3′-f][1,2,5]thiadiazepin-6-yl)methyl)pyridin-2-yl)propanoic Acid] as the compound, how does the EC50 read?
Its EC50 is 11.9 nM.

How did the EC50 turn out when `Cc1ccc([C@H](CC(=O)O)c2ccn3c(C(F)(F)F)nnc3c2C)cc1CN1CC2(CCOCC2)Oc2ccc(F)cc2S1(=O)=O` (single isomer, unassigned) [Example 415, (*S)-3-(3-((8-fluoro-1,1-dioxido-2′,3′,5′,6′-tetrahydrospiro[benzo[b][1,4,5]oxathiazepine-4,4′-pyran]-2(3H)-yl)methyl)-4-methylphenyl)-3-(8-methyl-3-(trifluoromethyl)-[1,2,4]triazolo[4,3-a]pyridin-7-yl)propanoic Acid] was run?
Its EC50 is 5.1 nM.

How did the EC50 turn out when `CCn1nnc2c(C)c(C(c3ccc(C)c(CN4CC5(CCOCC5)Oc5ncccc5S4(=O)=O)c3)C(C)(C)C(=O)O)ccc21` (centres unmarked) [Example 14, 3-(3-((1′,1′-Dioxido-2,3,5,6-tetrahydrospiro[pyran-4,4′-pyrido[2,3-b][1,4,5]oxathiazepin]-2′(3′H)-yl)methyl)-4-methylphenyl)-3-(1-ethyl-4-methyl-1H-benzo[d][1,2,3]triazol-5-yl)-2,2-dimethylpropanoic Acid] was run?
The EC50 was 0.7 nM.

How did the EC50 turn out when `Cc1ccc([C@H](CC(=O)O)c2ccn3c(C(F)(F)F)nnc3c2C)cc1CN1C[C@H]2CCCCN2c2nc(C#N)ccc2S1(=O)=O` (relative stereo) [Example 204, (*S)-3-(3-(((*R)-2-Cyano-5,5-dioxido-7,7a,8,9,10,11-hexahydro-6H-dipyrido[2,1-d:2′,3′-f][1,2,5]thiadiazepin-6-yl)methyl)-4-methylphenyl)-3-(8-methyl-3-(trifluoromethyl)-[1,2,4]triazolo[4,3-a]pyridin-7-yl)propanoic Acid] was run?
Its EC50 is 5.9 nM.

With `CCc1c([C@@H](CC(=O)O)c2ccc(C)c(CN3C[C@@H]4CCCCN4c4ncc(C)cc4S3(=O)=O)c2)ccn2c(C(F)(F)F)nnc12` (relative stereo) [Example 517, (*S)-3-(8-Ethyl-3-(trifluoromethyl)-[1,2,4]triazolo[4,3-a]pyridin-7-yl)-3-(4-methyl-3-(((*S)-3-methyl-5,5-dioxido-7,7a,8,9,10,11-hexahydro-6H-dipyrido[2,1-d:2′,3′-f][1,2,5]thiadiazepin-6-yl)methyl)phenyl)propanoic Acid] as the compound, how does the EC50 read?
Its EC50 is 10.3 nM.

For `CCn1nnc2c(C)c([C@H](CC(=O)O)c3ccc(C)c(CN4C[C@H]5CCCCN5c5ncccc5S4(=O)=O)c3)ccc21` (single isomer, unassigned) [Example 146, (*R)-3-(3-(((*R)-5,5-Dioxido-7,7a,8,9,10,11-hexahydro-6H-dipyrido[2,1-d:2′,3′-f][1,2,5]thiadiazepin-6-yl)methyl)-4-methylphenyl)-3-(1-ethyl-4-methyl-1H-benzo[d][1,2,3]triazol-5-yl)propanoic Acid], which EC50 is on record?
The EC50 was 4.2 nM.

Which EC50 does the source give for `Cc1cc2cc([C@@H](c3ccc(C)c(CN4CC5(CCOCC5)Oc5nc(OCCN6CCCCC6)c(C)cc5S4(=O)=O)c3)C(C)(C)C(=O)O)n(C)c2nn1` (single isomer, unassigned) [Example 348, (*S)-3-(3,7-Dimethyl-7H-pyrrolo[2,3-c]pyridazine-6-yl)-2,2-dimethyl-3-(4-methyl-3-((8′-methyl-1′,1′-dioxido-7′-(2-(piperidine-1-yl)-ethoxy)2,3,5,6-tetrahydrospiro[pyran-4,4′-pyrido[2,3-b][1,4,5]oxathiazepin]-2′,(3′H)-yl)methyl)phenyl)propanoic Acid] here?
The EC50 was 19.2 nM.

Which EC50 does the source give for `Cc1ccc(C(c2ccn3c(C(F)(F)F)nnc3c2C)C(C)(C)C(=O)O)cc1CN1CC2(CCOCC2)Oc2nc(NCCCO)ccc2S1(=O)=O` (centres unmarked) [Example 114] here?
Its EC50 is 145 nM.

`Cc1ccc([C@H](CC(=O)O)c2ccn3c(C(F)(F)F)nnc3c2C)cc1CN1C[C@H]2CCCCN2c2ncc(C(F)(F)F)cc2S1(=O)=O` (relative stereo) [Example 199, (*S)-3-(3-(((*R)-5,5-Dioxido-3-(trifluoromethyl)-7,7a,8,9,10,11-hexahydro-6H-dipyrido[2,1-d:2′,3′-f][1,2,5]thiadiazepin-6-yl)methyl)-4-methylphenyl)-3-(8-methyl-3-(trifluoromethyl)-[1,2,4]triazolo[4,3-a]pyridin-7-yl)propanoic Acid] was tested. Which EC50 did it give?
Its EC50 is 3.3 nM.

With `Cc1cnc2c(c1)S(=O)(=O)N(Cc1cc([C@H](c3ccn4c(C(F)(F)F)nnc4c3C)[C@@H](C)C(=O)O)ccc1C)CC1(CC1)O2` (relative stereo) [Example 546, (2*R,3*R)-2-Methyl-3-(4-methyl-3-((8′-methyl-1′,1′-dioxidospiro[cyclopropane-1,4′-pyrido[2,3-b][1,4,5]oxathiazepin]-2′(3′H)-yl)methyl)phenyl)-3-(8-methyl-3-(trifluoromethyl)-[1,2,4]triazolo[4,3-a]pyridin-7-yl)propanoic Acid] as the compound, how does the EC50 read?
The EC50 was over 20000 nM.

For `Cc1ccc([C@H](c2ccn3c(C(F)(F)F)nnc3c2C)C(C)C(=O)O)cc1CN1C[C@@H]2CCCCN2c2ncccc2S1(=O)=O` (relative stereo) [Example 130, (3*R)-3-(3-(((*S)-5,5-Dioxido-7,7a,8,9,10,11-hexahydro-6H-dipyrido[2,1-d:2′,3′-f][1,2,5]thiadiazepin-6-yl)methyl)-4-methylphenyl)-2-methyl-3-(8-methyl-3-(trifluoromethyl)-[1,2,4]triazolo[4,3-a]pyridine-7-yl)propanoic Acid], which EC50 is on record?
The EC50 was 54.8 nM.

How did the EC50 turn out when `Cc1ccc([C@@H](c2ccn3c(C(F)(F)F)nnc3c2C)C(C)(C)C(=O)O)cc1CN1CC2(CCNCC2)Oc2ncccc2S1(=O)=O` (single isomer, unassigned) [Example 336, (*S)-3-(3-((1′,1′-Dioxidospiro[piperidine-4,4′-pyrido[2,3-b][1,4,5]oxathiazepin]-2′(3′H)-yl)methyl)-4-methylphenyl)-2,2-dimethyl-3-(8-methyl-3-(trifluoromethyl)-[1,2,4]triazolo[4,3-a]pyridin-7-yl)propanoic Acid] was run?
Its EC50 is 1830 nM.

From patent publication US10947252B2, “Inhibitors of KEAP1-Nrf2 protein-protein interaction” (Janssen Pharmaceutica NV, priority 2018, dated 2021)
